Patent US20140275060A1, “COMPOUNDS FOR THE TREATMENT OF NEUROLOGIC DISORDERS” (priority 2013, published 2014)

Molecular target: GluN1/GluN2B Receptors (Rattus norvegicus, UniProt P35439+Q00960)
Experiment: Two-electrode voltage-clamp IC50 determination at GluN1/GluN2B receptors expressed in Xenopus oocytes
Type: cell-based, Human or Rat
Procedure: Determination of IC50 Values of GluN1/GluN2B Receptors Expressed in Xenopus oocytes in Human or Rat Stage V and VI oocytes were surgically removed from the ovaries of large, well-fed and healthy Xenopus laevis anesthetized with 3-amino-benzoic acid ethyl ester (3 gm/l). Oocytes were injected within 24 hrs of isolation with 3-5 ng of GluN1 subunit cRNA and 7-10 ng of GluN2 cRNA subunit in a 50 nl volume, and incubated in Barth's solution at 18° C. for 2-7 d. Glass injection pipettes had tip sizes ranging from 10-20 microns, and were backfilled with mineral oil. Two electrode voltage-clamp recordings were made 2-7 days post-injection. Oocytes were placed in a dual-track plexiglass recording chamber and dual recordings were made at room temperature (23° C.) using two Warner OC725C two-electrode voltage clamp amplifiers, arranged as recommended by the manufacturer. Glass microelectrodes (1-10 Megaohms) were filled with 300 mM KCl (voltage electrode) or 3 M KCl (current electrode). The bath clamps communicated across silver chloride wires placed into each side of the recording chamber, both were assumed to be at a reference potential of 0 mV. Oocytes were perfused with a solution comprised of (in mM) 90 NaCl, 1 KCl, 10 HEPES, 10 EDTA and 0.5 BaCl2; pH was adjusted by addition of 1-3 M NaOH or HCl. Oocytes were recorded under voltage clamp at −40 mV. Final concentrations for glutamate and glycine were 50 μM and 30 μM, respectively. Concentration-response curves for experimental compounds were obtained by applying maximal glutamate/glycine, followed by glutamate/glycine plus variable concentrations of experimental compounds. Dose response curves consisting of 4 to 6 concentrations were obtained in this manner. The baseline leak current at −40 mV was measured before and after recording, and the full recording linearly corrected for any change in leak current. The level of inhibition by applied experimental compounds measured after a 6 min exposure to a compound was expressed as a percent of the initial glutamate response, and averaged together across oocytes from multiple experiments. Results were pooled, and the average percent responses at antagonist concentrations were fit by the equation, Percent Response=(100−minimum)/(1+([conc]/IC50)^nH)+minimum where minimum is the residual percent response in saturating concentration of the experimental compounds, IC50 is the concentration of antagonist that causes half of the achievable inhibition, and nH is a slope factor describing steepness of the inhibition curve. Minimum was constrained to be between zero and 20. Recordings were made at pH 6.9, pH 7.4, and pH 7.6.

GluN1/GluN2B Receptors, sequence (Q00960 27-1482, other chains not shown): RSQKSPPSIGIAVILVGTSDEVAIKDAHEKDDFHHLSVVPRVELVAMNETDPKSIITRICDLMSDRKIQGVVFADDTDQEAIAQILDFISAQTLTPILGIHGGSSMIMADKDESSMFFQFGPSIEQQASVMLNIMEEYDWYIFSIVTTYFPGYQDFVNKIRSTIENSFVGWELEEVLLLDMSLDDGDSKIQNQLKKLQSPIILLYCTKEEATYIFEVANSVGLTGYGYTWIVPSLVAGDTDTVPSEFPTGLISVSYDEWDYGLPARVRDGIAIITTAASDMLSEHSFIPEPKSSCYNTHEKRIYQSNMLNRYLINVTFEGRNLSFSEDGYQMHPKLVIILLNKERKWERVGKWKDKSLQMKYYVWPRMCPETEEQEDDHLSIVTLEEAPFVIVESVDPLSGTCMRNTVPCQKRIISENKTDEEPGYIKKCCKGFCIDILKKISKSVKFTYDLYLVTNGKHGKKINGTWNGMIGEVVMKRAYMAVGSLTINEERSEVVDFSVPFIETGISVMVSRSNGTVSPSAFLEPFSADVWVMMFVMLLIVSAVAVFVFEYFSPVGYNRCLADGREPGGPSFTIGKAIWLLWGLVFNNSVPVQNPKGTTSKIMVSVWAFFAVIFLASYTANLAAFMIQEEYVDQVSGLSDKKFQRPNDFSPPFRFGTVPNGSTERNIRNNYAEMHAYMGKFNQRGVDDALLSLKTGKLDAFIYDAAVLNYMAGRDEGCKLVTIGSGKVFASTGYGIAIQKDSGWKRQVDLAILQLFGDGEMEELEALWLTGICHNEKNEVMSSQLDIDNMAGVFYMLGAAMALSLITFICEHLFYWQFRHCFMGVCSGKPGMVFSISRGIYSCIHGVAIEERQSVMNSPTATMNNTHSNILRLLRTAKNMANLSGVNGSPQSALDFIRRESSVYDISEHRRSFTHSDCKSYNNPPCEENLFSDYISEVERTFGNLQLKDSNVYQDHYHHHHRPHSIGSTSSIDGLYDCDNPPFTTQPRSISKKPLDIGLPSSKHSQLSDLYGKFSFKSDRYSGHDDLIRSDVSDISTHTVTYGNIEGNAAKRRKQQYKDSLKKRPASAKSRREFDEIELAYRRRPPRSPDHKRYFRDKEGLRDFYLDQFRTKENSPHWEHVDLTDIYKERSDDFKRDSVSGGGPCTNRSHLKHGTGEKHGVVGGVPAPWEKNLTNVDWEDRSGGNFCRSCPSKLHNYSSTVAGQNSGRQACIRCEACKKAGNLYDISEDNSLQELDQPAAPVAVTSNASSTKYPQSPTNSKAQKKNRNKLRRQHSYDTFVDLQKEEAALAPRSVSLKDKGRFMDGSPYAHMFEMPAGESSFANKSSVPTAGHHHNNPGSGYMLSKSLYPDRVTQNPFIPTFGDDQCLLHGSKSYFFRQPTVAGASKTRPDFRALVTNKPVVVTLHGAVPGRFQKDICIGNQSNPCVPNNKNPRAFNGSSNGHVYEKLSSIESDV

## O=C1NCc2cc(/C=C/[C@@H](O)CN3CCN(c4ccc(C5CC5)cc4)CC3)ccc2N1 [Compound 18, (R,E)-6-(4-(4-(4-cyclopropylphenyl)piperazin-1-yl)-3-hydroxybut-1-en-1-yl)-3,4-dihydroquinazolin-2(1H)-one]
pH 6.9
  nH (slope factor of the inhibition curve): −0.78
pH 7.6
  nH (slope factor of the inhibition curve): −1.28

## CCCc1ccc(N2CCN(CC(O)C=Cc3ccc4[nH]c(=O)ccc4c3)CC2)cc1 (racemic) [Compound 10, (rac-)(E)-6-(3-hydroxy-4-(4-(4-propylphenyl)piperazin-1-yl)but-1-en-1-yl)quinolin-2(1H)-one]
pH 6.9
  nH (slope factor of the inhibition curve): −0.90
pH 7.6
  nH (slope factor of the inhibition curve): −1.24

## O=C1COc2cc(/C=C/[C@@H](O)CN3CCN(c4ccc(C(F)(F)F)cc4)CC3)ccc2N1 [Compound 15, (R,E)-7-(3-hydroxy-4-(4-(4-(trifluoromethyl)phenyl)piperazin-1-yl)but-1-en-1-yl)-2H-benzo[b][1,4]oxazin-3(4H)-one]
pH 6.9
  nH (slope factor of the inhibition curve): −0.88
pH 7.6
  nH (slope factor of the inhibition curve): −1.04

## CCCc1ccc(N2CCN(C[C@@H](O)/C=C/c3ccc4[nH]c(=O)ccc4c3)CC2)cc1 [Compound 11, (S,E)-6-(3-hydroxy-4-(4-(4-propylphenyl)piperazin-1-yl)but-1-en-1-yl)quinolin-2(1H)-one]
pH 6.9
  nH (slope factor of the inhibition curve): −0.87
pH 7.6
  nH (slope factor of the inhibition curve): −0.52

## O=C1CCc2cc(/C=C/C(CO)N3CCN(c4ccc(Cl)cc4)CC3)ccc2N1 (racemic) [Compound 23, (rac)-(E)-6-(3-(4-(4-chlorophenyl)piperazin-1-yl)-4-hydroxybut-1-en-1-yl)-3,4-dihydroquinolin-2(1H)-one]
pH 6.9
  nH (slope factor of the inhibition curve): −1.09
pH 7.6
  nH (slope factor of the inhibition curve): −0.60

## O=C1CCc2cc(/C=C/[C@@H](O)CN3CCN(c4ccc(C(F)(F)F)cc4)CC3)ccc2N1 [Compound 35, (R,E)-6-(3-Hydroxy-4-(4-(4-(trifluoromethyl)phenyl)piperazin-1-yl)but-1-en-1-yl)-3,4-dihydroquinolin-2(1H)-one]
pH 6.9
  nH (slope factor of the inhibition curve): −0.68
pH 7.6
  nH (slope factor of the inhibition curve): −0.75

## O=C1CCc2cc(/C=C/[C@@H](CO)N3CCN(c4ccc(C(F)(F)F)cc4)CC3)ccc2N1 [Compound 43, (S,E)-6-(4-Hydroxy-3-(4-(4-(trifluoromethyl)phenyl)piperazin-1-yl)but-1-en-1-yl)-3,4-dihydroquinolin-2(1H)-one]
pH 6.9
  nH (slope factor of the inhibition curve): −0.67
pH 7.6
  nH (slope factor of the inhibition curve): −1.09

## O=C1NCc2cc(/C=C/[C@@H](O)CN3CCN(c4ccc(C(F)(F)F)cc4)CC3)ccc2N1 [Compound 41, (R,E)-6-(3-hydroxy-4-(4-(4-(trifluoromethyl)phenyl)piperazin-1-yl)but-1-en-1-yl)-3,4-dihydroquinazolin-2(1H)-one]
pH 6.9
  nH (slope factor of the inhibition curve): −0.64
pH 7.6
  nH (slope factor of the inhibition curve): −1.04

## O=C1CCc2cc(/C=C/C(O)CN3CCN(c4ccc(Cl)cc4)CC3)ccc2N1 (racemic) [Compound 21, (rac)-(E)-6-(4-(4-(4-Chlorophenyl)piperazin-1-yl)-3-hydroxybut-1-en-1-yl)-3,4-dihydroquinolin-2(1H)-one]
pH 6.9
  nH (slope factor of the inhibition curve): −0.81
pH 7.6
  nH (slope factor of the inhibition curve): −1.28

## O=c1ccc2cc(/C=C/[C@H](O)CN3CCN(c4ccc(C5CC5)cc4)CC3)ccc2[nH]1 [Compound 13, (S,E)-6-(4-(4-(4-cyclopropylphenyl)piperazin-1-yl)-3-hydroxybut-1-en-1-yl)quinolin-2(1H)-one]
pH 6.9
  nH (slope factor of the inhibition curve): −0.81
pH 7.6
  nH (slope factor of the inhibition curve): −0.80

## O=C1CCc2cc(/C=C/[C@H](O)CN3CCN(c4ccc(Cl)cc4)CC3)ccc2N1 [Compound 27, (S,E)-6-(4-(4-(4-Chlorophenyl)piperazin-1-yl)-3-hydroxybut-1-en-1-yl)-3,4-dihydro-quinolin-2(1H)-one]
pH 6.9
  nH (slope factor of the inhibition curve): −0.95
pH 7.6
  nH (slope factor of the inhibition curve): −0.64

## O=C1COc2cc(/C=C/[C@H](O)CN3CCN(c4ccc(C(F)(F)F)cc4)CC3)ccc2N1 [Compound 16, (S,E)-7-(3-hydroxy-4-(4-(4-(trifluoromethyl)phenyl)piperazin-1-yl)but-1-en-1-yl)-2H-benzo[b][1,4]oxazin-3(4H)-one]
pH 6.9
  nH (slope factor of the inhibition curve): −0.67
pH 7.6
  nH (slope factor of the inhibition curve): −1.29

## O=C1CCc2cc(/C=C/[C@H](O)CN3CCN(c4ccc(C(F)(F)F)cc4)CC3)ccc2N1 [Compound 33, (S,E)-6-(3-Hydroxy-4-(4-(4-(trifluoromethyl)phenyl)piperazin-1-yl)but-1-en-1-yl)-3,4-dihydroquinolin-2(1H)-one]
pH 6.9
  nH (slope factor of the inhibition curve): −0.56
pH 7.6
  nH (slope factor of the inhibition curve): −0.65

## O=C1CCc2cc(/C=C/[C@@H](O)CN3CCN(c4ccc(C(F)(F)F)cn4)CC3)ccc2N1 [Compound 45, (R,E)-6-(3-Hydroxy-4-(4-(5-(trifluoromethyl)pyridin-2-yl)piperazin-1-yl)but-1-en-1-yl)-3,4-dihydroquinolin-2(1H)-one]
pH 6.9
  nH (slope factor of the inhibition curve): −0.80
pH 7.6
  nH (slope factor of the inhibition curve): −0.80

## CC(C)c1ccc(N2CCN(C[C@@H](O)/C=C/c3ccc4c(c3)CCC(=O)N4)CC2)cc1 [Compound 25, (S,E)-6-(3-Hydroxy-4-(4-(4-isopropylphenyl)piperazin-1-yl)but-1-en-1-yl)-3,4-dihydroquinolin-2(1H)-one]
pH 6.9
  nH (slope factor of the inhibition curve): −0.61
pH 7.6
  nH (slope factor of the inhibition curve): −1.22

## CC(C)c1ccc(N2CCN(C[C@H](O)/C=C/c3ccc4c(c3)CCC(=O)N4)CC2)cc1 [Compound 29, (R,E)-6-(3-Hydroxy-4-(4-(4-isopropylphenyl)piperazin-1-yl)but-1-en-1-yl)-3,4-dihydroquinolin-2(1H)-one]
pH 6.9
  nH (slope factor of the inhibition curve): −0.54
pH 7.6
  nH (slope factor of the inhibition curve): −1.31

## O=C1CCc2cc(/C=C/[C@@H](O)CN3CCN(c4ccc(Cl)cc4)CC3)ccc2N1 [Compound 31, (R,E)-6-(4-(4-(4-Chlorophenyl)piperazin-1-yl)-3-hydroxybut-1-en-1-yl)-3,4-dihydroquinolin-2(1H)-one]
pH 6.9
  nH (slope factor of the inhibition curve): −0.64
pH 7.6
  nH (slope factor of the inhibition curve): −0.90

## NC(=O)Nc1ccc(/C=C/[C@H](O)CN2CCN(c3ccc(C(F)(F)F)cc3)CC2)cc1 [Compound 39, (S,E)-1-(4-(3-Hydroxy-4-(4-(4-(trifluoromethyl)phenyl)piperazin-1-yl)but-1-en-1-yl)phenyl)urea]
pH 6.9
  nH (slope factor of the inhibition curve): −0.43
pH 7.6
  nH (slope factor of the inhibition curve): −0.69

## NC(=O)Nc1ccc(/C=C/[C@@H](O)CN2CCN(c3ccc(C(F)(F)F)cc3)CC2)cc1 [Compound 38, (R,E)-1-(4-(3-Hydroxy-4-(4-(4-(trifluoromethyl)phenyl)piperazin-1-yl)but-1-en-1-yl)phenyl)urea]
pH 6.9
  nH (slope factor of the inhibition curve): −0.64
pH 7.6
  nH (slope factor of the inhibition curve): −0.69

## CC(C)c1ccc(N2CCN(C[C@@H](O)/C=C/c3ccc(NC(N)=O)cc3)CC2)cc1 [Compound 36, (S,E)-1-(4-(3-Hydroxy-4-(4-(4-isopropylphenyl)piperazin-1-yl)but-1-en-1-yl)phenyl)urea]
pH 6.9
  nH (slope factor of the inhibition curve): −0.82
pH 7.6
  nH (slope factor of the inhibition curve): −1.05
